Laboratory results reported in patent US20160115540A1, “PRODRUGS AND DRUGS” (Biogen MA Inc., priority 2013, published 2016).
Counter-ions that a name gives are not always drawn.

Test system: jejunum
Assay: Transcriptional profiling on Affymetrix GeneChips, single dose, naïve mice: jejunum
Format: in vivo, C57BL/6 mice
Details: for Number of differentially expressed genes identified: Jenjunum: Naïve, Single Dose
Procedure: Treated mice were sacrificed at 2, 7, or 12 hours. Tissues (liver, spleen, kidney, jejunum, cortex, hippocampus, striatum and whole blood) were collected and analyzed by transcriptional profiling on mouse Affymetrix GeneChips.
Tissues (liver, spleen, kidney, jejunum, cortex, hippocampus, striatum and whole blood) were collected and analyzed by transcriptional profiling on mouse Affymetrix GeneChips.
Animals were exposed to CO2 and whole blood collected via cardiac puncture. Two 100 μl aliquots of whole blood were collected in 1.5 mL microcentrifuge tubes and snap frozen in liquid nitrogen. Peripheral (liver, spleen, kidney and jejunum) and CNS brain (cerebellum, hippocampus, striatum and cortex) tissues were harvested and snap frozen in liquid nitrogen, with special care taken to collect tissues of similar size and from the same location. All samples were stored at −80° C. until RNA extraction was conducted.
For RNA preparation, frozen tissues were placed in 2 mL RNAse-free 96-well blocks with 1.5 mL QIAzol Lysis Reagent (QIAgen) and a 3.2 mm stainless steel bead (BioSpec Products, Bartlesville, Okla.). Tissues were disrupted for four cycles of 45 seconds in a Mini-Beadbeater (Biospec Products). RNA was extracted in chloroform and the aqueous phase was mixed with an equal volume of 70% ethanol. Extracted RNA was applied to RNeasy 96 plates and purified by the spin method according to the manufacturer's protocol (RNeasy 96 Universal Tissue Protocol, QIAgen, Hilden Germany).
Automated sample amplifications and biotin labelings were carried out using the NuGEN Ovation RNA Amplification system V2 (Cat #3100), Ovation WB reagent (Cat #1300) and Encore Biotin module (Cat #4200) (NuGEN Technologies, Inc, San Carlos, Calif.) according to manufacturer's recommendations using an Arrayplex automated liquid handler (Beckman Coulter, Indianapolis, Ind.). Two micrograms of biotin labeled sscDNA probe were hybridized to Affymetrix GeneChip Affymetrix HT_MG-430_PM plate arrays with modified conditions as described in Allaire et al. Washing and staining of the hybridized arrays were completed as described in the GeneChip Expression analysis technical manual for HT plate arrays using the Genechip® Array Station (Affymetrix, Santa Clara, Calif.) with modifications as described in Allaire et al. The processed GeneChip® plate arrays were scanned using GeneTitan scanner (Affymetrix, Santa Clara, Calif.).
Affymetrix scans were subject to quality control (QC) measures. These tests included a visual inspection of the distribution of raw signal intensities and an assessment of RNA degradation, relative log expression (RLE), and normalized unsealed standard error (NUSE). All sample scans that passed these QC metrics were included in the analysis.
All CEL files were subjected to GC-content-based Robust Multi-array Average (GCRMA) normalization (version 2.20.0) (Irizarry R A, et al. Nucleic Acids Res 2003; 31:e15; Li C, et al. Genome Biol 2001; 2:[…]0032). Expression levels were log (base 2) transformed.
All calculations and analyses were carried out using R (version 2.11.1) and Bioconductor computational tools (Gentleman R. Springer Science+Business Media 2005).

## COC(=O)/C=C/C(=O)OC [DMF, dimethyl fumarate]
Jejunum, 12 hr
  Pir (1429001_PM_at) differential expression: 3.79
  Setd4 (1435405_PM_at) differential expression: 1.66
  Slc5a4b (1422757_PM_at) differential expression: 2.21
  Ugt2b5 (1419622_PM_at) differential expression: 4.92
  Ugt2b36 (1455595_PM_at) differential expression: 2.94
100 mpk DMF-vs-100 mpk MMF, 2 h after last dosing
  Number of differentially expressed genes identified: Jenjunum: 1
100 mpk DMF-vs-100 mpk MMF, 7 h after last dosing
  Number of differentially expressed genes identified: Jenjunum: 2
100 mpk DMF-vs-100 mpk MMF, 12 h after last dosing
  Number of differentially expressed genes identified: Jenjunum: 0
100 mpk, vs Vehicle, 2 h after last dosing
  Number of differentially expressed genes identified: Jenjunum: 62
100 mpk, vs Vehicle, 7 h after last dosing
  Number of differentially expressed genes identified: Jenjunum: 44
100 mpk, vs Vehicle, 12 h after last dosing
  Number of differentially expressed genes identified: Jenjunum: 37
jejunum, 100DMF-vs-Veh, 2 h
  FC 9130221J17Rik (1443159_PM_at): 2.30
  FC Acss2 (1446542_PM_at): 1.68
  FC Akr1b8 (1448894_PM_at): 7.35
  FC Akr1c13 (1418672_PM_at): 1.62
  FC Akr1c19 (1455454_PM_at): 2.45
  FC Areg (1421134_PM_at): 3.58
  FC Cbr1 (1460196_PM_at): 1.55
  FC Cbr3 (1427912_PM_at): 54.72
  FC Ces1e (1419510_PM_at): 1.85
  FC Ces1f (1424266_PM_s_at): 2.48
  FC Ces1g (1449486_PM_at): 4.06
  FC Dnase2a (1430135_PM_at): 1.77
  FC Dppa5a (1416552_PM_at): 3.07
  FC Dusp4 1428834_PM_at: 1.51
  FC Entpd5 (1433763_PM_at): 1.53
  FC Ereg (1419431_PM_at): 2.50
  FC Ero1l (1419030_PM_at): 1.92
  FC Ero1l (1449324_PM_at): 1.50
  FC Esd (1441604_PM_at): 1.71
  FC Fam13a (1456611_PM_at): 1.54
  FC Gclc (1424296_PM_at): 4.25
  FC Gclc (1455959_PM_s_at): 3.13
  FC Gsr (1421816_PM_at): 2.23
  FC Gss (1441931_PM_x_at): 1.95
  FC Gss (1448273_PM_at): 1.67
  FC Gsta2 (1421040_PM_a_at): 3.82
  FC Gsta3 (1423436_PM_at): 3.23
  FC Gsta3 (1423437_PM_at): 4.03
  FC Gstm1 (1416416_PM_x_at): 2.30
  FC Gstm1 (1425627_PM_x_at): 2.57
  FC Gstm1 (1448330_PM_at): 2.47
  FC Gstm3 (1427473_PM_at): 2.37
  FC Gstm3 (1427474_PM_s_at): 1.56
  FC LOC100504040 (1457279_PM_at): 2.18
  FC Mafg (1448916_PM_at): 2.20
  FC Nqo1 (1423627_PM_at): 2.16
  FC Osgin1 (1424022_PM_at): 2.08
  FC Prss8 (1418320_PM_at): 2.60
  FC Ptk6 (1442923_PM_at): −2.42
  FC Setd4 (1425239_PM_at): 2.09
  FC Setd4 (1435405_PM_at): 1.91
  FC Setd4 (1460373_PM_a_at): 1.91
  FC Slc35e3 (1428805_PM_at): 1.53
  FC Slc40a1 (1417061_PM_at): 2.33
  FC Srr (1453421_PM_at): 1.99
  FC Srxn1 (1425351_PM_at): 1.71
  FC Tifa (1426501_PM_a_at): −2.43
  FC Tox3 (1436600_PM_at): 1.70
  FC Tsku (1440230_PM_at): 1.61
  FC Ugt2b5 (1419622_PM_at): 3.40
  FC Ugt2b35 (1439624_PM_at): 3.22
  FC Ugt2b36 (1455595_PM_at): 2.07
  FC Unc5cl (1429950_PM_at): −1.53
  FC probe 1441046_PM_at: 1.54
  FC probe 1443118_PM_at: 1.91
  FC probe 1444265_PM_at: 1.75
  FC probe 1445980_PM_at: 2.92
  FC probe 1446045_PM_at: 1.52
  FC probe 1447411_PM_at: 2.88
  FC probe 1459091_PM_at: 1.98
jejunum, 100DMF-vs-Veh, 7 h
  FC 9430069I07Rik (1431672_PM_at): 2.76
  FC Abcc3 (1428988_PM_at): 1.88
  FC Acsm5 (1437662_PM_at): 1.60
  FC Acss2 (1446542_PM_at): 1.71
  FC Akr1b8 (1448894_PM_at): 8.53
  FC Akr1c13 (1418672_PM_at): 1.61
  FC Akr1c19 (1455454_PM_at): 2.07
  FC Cbr1 (1460196_PM_at): 1.65
  FC Cbr3 (1427912_PM_at): 22.39
  FC Ces1e (1419510_PM_at): 2.10
  FC Ces1f (1424266_PM_s_at): 3.58
  FC Ces1g (1449486_PM_at): 4.67
  FC Ddc (1426215_PM_at): 1.74
  FC G6pd2 (1422327_PM_s_at): 1.82
  FC G6pdx (1448354_PM_at): 1.54
  FC Gclc (1424296_PM_at): 2.06
  FC Gclc (1455959_PM_s_at): 1.88
  FC Gsr (1421816_PM_at): 2.83
  FC Gss (1441931_PM_x_at): 1.89
  FC Gss (1448273_PM_at): 1.97
  FC Gsta2 (1421040_PM_a_at): 5.81
  FC Gsta2 (1421041_PM_s_at): 1.72
  FC Gsta3 (1423436_PM_at): 4.27
  FC Gsta3 (1423437_PM_at): 3.89
  FC Gstm1 (1416416_PM_x_at): 3.19
  FC Gstm1 (1425627_PM_x_at): 3.45
  FC Gstm1 (1448330_PM_at): 3.40
  FC Gstm2 (1416411_PM_at): 1.58
  FC Gstm3 (1427473_PM_at): 2.82
  FC Gstm3 (1427474_PM_s_at): 1.79
  FC Gstm4 (1424835_PM_at): 3.83
  FC Gstm6 (1422072_PM_a_at): 1.94
  FC Htatip2 (1451814_PM_a_at): 1.51
  FC Nqo1 (1423627_PM_at): 2.31
  FC Pir (1429001_PM_at): 3.79
  FC Setd4 (1425239_PM_at): 1.90
  FC Setd4 (1435405_PM_at): 1.50
  FC Setd4 (1460373_PM_a_at): 1.50
  FC Slc5a4b (1422757_PM_at): 1.67
  FC Txnrd1 (1424487_PM_x_at): 1.60
  FC Ugt2b5 (1419622_PM_at): 3.42
  FC Ugt2b35 (1439624_PM_at): 2.66
  FC Ugt2b36 (1455595_PM_at): 2.23
jejunum, 100DMF-vs-Veh, 12 h
  FC Aldh1a7 (1418601_PM_at): 1.65
  FC Gstm1 (1416416_PM_x_at): 3.56
  FC Gstm2 (1416411_PM_at): 2.04
